Test results published in patent US6159700A, “Method of finding agonist and antagonist to human and rat GPR14” (SmithKline Beecham Corporation, priority 1999, dated 2000).
Values belong to the molecule of their own block, whether it stands above or below them. Bridge positions count the residues as written; N and C are the ends. Peptide text beside a SMILES is read from it.

Assays:
rat GPR14 receptor [1] = target: T1, rat GPR14 receptor (Rattus norvegicus, UniProt P49684); assay: Binding to rat GPR14 receptor; conditions: compared with Human GPR14
T1 sequence (P49684 1-386): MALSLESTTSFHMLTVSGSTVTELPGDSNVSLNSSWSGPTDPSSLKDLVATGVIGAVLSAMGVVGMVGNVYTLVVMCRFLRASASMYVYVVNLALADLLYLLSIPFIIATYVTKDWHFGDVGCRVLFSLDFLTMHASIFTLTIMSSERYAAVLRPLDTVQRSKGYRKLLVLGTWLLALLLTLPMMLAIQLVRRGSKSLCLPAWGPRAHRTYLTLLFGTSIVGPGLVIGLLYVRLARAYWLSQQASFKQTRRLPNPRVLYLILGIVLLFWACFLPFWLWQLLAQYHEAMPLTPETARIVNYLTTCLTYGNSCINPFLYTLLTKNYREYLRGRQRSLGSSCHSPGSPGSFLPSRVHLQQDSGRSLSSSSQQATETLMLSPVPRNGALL
Source text: Ligand binding assays provide a direct method for ascertaining receptor pharmacology and are adaptable to a high throughput format. The purified ligand for a receptor is radiolabeled to high specific activity (50-2000 Ci/mmol) for binding studies. […] Assay conditions for buffers, ions, pH and other modulators such as nucleotides are optimized to establish a workable signal to noise ratio for both membrane and whole cell receptor sources. For these assays, specific receptor binding is defined as total associated radioactivity minus the radioactivity measured in the presence of an excess of unlabeled competing ligand. Where possible, more than one competing ligand is used to define residual nonspecific binding.

intact primate = assay: Effects in the intact primate; type: in vivo
Vasoconstrictor potency = conditions: mammalian
Rat GPR14 receptor [2] = target: T2, Rat GPR14 receptor (rat); assay: cell-based or functional assay
T2 chain: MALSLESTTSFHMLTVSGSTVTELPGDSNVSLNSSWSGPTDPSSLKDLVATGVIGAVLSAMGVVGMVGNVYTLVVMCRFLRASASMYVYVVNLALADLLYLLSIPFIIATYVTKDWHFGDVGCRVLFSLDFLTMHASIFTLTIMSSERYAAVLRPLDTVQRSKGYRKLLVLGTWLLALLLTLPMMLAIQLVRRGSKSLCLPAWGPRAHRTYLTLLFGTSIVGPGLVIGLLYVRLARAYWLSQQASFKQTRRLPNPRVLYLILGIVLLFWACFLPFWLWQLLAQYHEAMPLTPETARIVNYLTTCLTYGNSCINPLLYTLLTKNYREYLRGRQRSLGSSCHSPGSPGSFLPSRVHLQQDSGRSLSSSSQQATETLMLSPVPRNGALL

Human GPR14 = target: T3, Human GPR14 (human); assay: cell-based or functional assay
T3 chain: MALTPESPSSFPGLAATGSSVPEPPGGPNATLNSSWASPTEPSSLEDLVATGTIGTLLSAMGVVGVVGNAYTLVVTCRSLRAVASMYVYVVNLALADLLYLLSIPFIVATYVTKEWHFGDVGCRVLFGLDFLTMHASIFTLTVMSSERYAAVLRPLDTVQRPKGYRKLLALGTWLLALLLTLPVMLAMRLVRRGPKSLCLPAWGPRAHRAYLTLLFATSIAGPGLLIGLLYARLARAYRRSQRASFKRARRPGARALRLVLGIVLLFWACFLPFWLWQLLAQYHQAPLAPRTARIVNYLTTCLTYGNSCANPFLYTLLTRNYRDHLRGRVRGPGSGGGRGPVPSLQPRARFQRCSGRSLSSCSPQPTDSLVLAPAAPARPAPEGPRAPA

Molecule: CC(C)[C@H](NC(=O)[C@@H]1CSSC[C@H](NC(=O)[C@H](CC(=O)O)NC(=O)[C@@H]2CCCN2C(=O)[C@@H](NC(=O)[C@@H](N)CCC(=O)O)[C@@H](C)O)C(=O)N[C@@H](Cc2ccccc2)C(=O)N[C@@H](Cc2c[nH]c3ccccc23)C(=O)N[C@@H](CCCCN)C(=O)N[C@@H](Cc2ccc(O)cc2)C(=O)N1)C(=O)O [human urotensin II]
- cardiovascular effects in vivo (intact primate): induces systemic vasoconstriction, myocardial contractile dysfunction and, ultimately, lethal arrhythmias
- vasoconstrictor potency (Vasoconstrictor potency): most potent mammalian vasoconstrictor identified to date
- binding to rat GPR14 receptor (rat GPR14 receptor [1]): binds equally well to rat GPR14 receptor

Molecule: AGTADCFWKYCV [Fish urotensin II]
- EC50 of calcium mobilization (FLIPR) (Rat GPR14 receptor [2]): 800 pM
- EC50 of calcium mobilization (FLIPR) (Human GPR14): 500 pM

The remaining lines, values ahead:

- binding to rat GPR14 receptor (rat GPR14 receptor [1]): binds equally well to rat GPR14 receptor
Molecule: CC(C)[C@H](NC(=O)[C@@H]1CSSC[C@H](NC(=O)[C@H](CC(=O)O)NC(=O)[C@H](C)NC(=O)[C@@H](NC(=O)CNC(=O)[C@H](C)N)[C@@H](C)O)C(=O)N[C@@H](Cc2ccccc2)C(=O)N[C@@H](Cc2c[nH]c3ccccc23)C(=O)N[C@@H](CCCCN)C(=O)N[C@@H](Cc2ccc(O)cc2)C(=O)N1)C(=O)O [fish urotensin II] (H-AGTADCFWKYCV-OH; disulfide 6-11 (inferred); N-terminus and C-terminus assumed)

- EC50 of calcium mobilization (Human GPR14): 100 to 200 pM
Molecule: ETPDCFWKYCV [Human urotensin II]
